Laboratory results as given in PubChem BioAssay AID330 (DTP/NCI, 2004).
Several values for one entry are separate records, joined by “and”; a condition that tells them apart may be missing. Equal values may be shown once. Where a name gives a salt, the structure may show the parent alone. Inconclusive results and toxic doses are left out. Rule for the calls: active = survival T/C of 150% or more; inactive = T/C below 125% in these data. Peptide text beside a SMILES is read from it. * marks the point of attachment. Tfa = O=C(C(F)(F)F)*

System: P388 leukemia ip, CD2F1 mice, survival T/C
Assay: NCI In Vivo Anticancer Drug Screen. Data for tumor model P388 Leukemia (intraperitoneal) in CD2F1 (CDF1) mice
Conditions: endpoint: median survival time, higher = longer survival
Method in brief: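 Mice carrying the transplanted tumor received test compound or vehicle. Survival was recorded in each group, and the value is the treated-group measurement divided by that of the vehicle-treated control group.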

[1] = dose: 60.0 mg/kg/injection, schedule: Q01DX005 (ip), vehicle: saline with Tween-80
[2] = dose: 120.0 mg/kg/injection, schedule: Q01DX005 (ip), vehicle: saline with Tween-80
[3] = dose: 240.0 mg/kg/injection, schedule: Q01DX005 (ip), vehicle: saline with Tween-80
[4] = dose: 50.0 mg/kg/injection, schedule: Q01DX005 (ip), vehicle: saline with Tween-80
[5] = dose: 100.0 mg/kg/injection, schedule: Q01DX005 (ip), vehicle: saline with Tween-80
[6] = dose: 200.0 mg/kg/injection, schedule: Q01DX005 (ip), vehicle: saline with Tween-80
[7] = dose: 50.0 mg/kg/injection, schedule: Q01DX005 (ip), vehicle: Klucel (hydroxypropylcellulose) (HPC)
[8] = dose: 200.0 mg/kg/injection, schedule: Q01DX005 (ip), vehicle: Klucel (hydroxypropylcellulose) (HPC)

Measured: T/C

COC(=O)CC(NC(=O)C1CCCN1C(=O)C(F)(F)F)C(=O)OC (stereo not drawn) (Tfa-Pro-Asp(OMe)-OMe; configuration not given here)
inactive: dose: 100.0 mg/kg/injection, schedule: Q01DX001 (ip), vehicle: saline with Tween-80 104 % of control | dose: 200.0 mg/kg/injection, schedule: Q01DX001 (ip), vehicle: saline with Tween-80 101 % of control and 100 % of control | dose: 400.0 mg/kg/injection, schedule: Q01DX001 (ip), vehicle: saline with Tween-80 104 % of control

COc1c(OC)c(C2(O)C(=O)N(C)c3ccccc32)c2c(c1C1(O)C(=O)N(C)c3ccccc31)OCO2 (stereo not drawn)
inactive: [1] 95 % of control | [2] 90 % of control | [3] 89 % of control

COc1cc(N=Nc2ccc(N)nc2N)c(OC)cc1N=Nc1ccc([N+](=O)[O-])cc1
inactive: [4] 115 % of control | [5] 107 % of control | [6] 107 % of control

Cc1cc(C(C#N)c2ccc(Cl)cc2)c(Cl)cc1NC(=O)c1cc(I)cc(I)c1O (stereo not drawn)
inactive: dose: 6.25 mg/kg/injection, schedule: Q01DX005 (ip), vehicle: saline with Tween-80 102 % of control | dose: 12.5 mg/kg/injection, schedule: Q01DX005 (ip), vehicle: saline with Tween-80 94 % of control | dose: 25.0 mg/kg/injection, schedule: Q01DX005 (ip), vehicle: saline with Tween-80 88 % of control

COc1ccc(/C=N/n2cnc3c(sc4ccccc43)c2=O)cc1
inactive: dose: 12.5 mg/kg/injection, schedule: Q01DX005 (ip), vehicle: Klucel (hydroxypropylcellulose) (HPC) 99 % of control | dose: 25.0 mg/kg/injection, schedule: Q01DX005 (ip), vehicle: Klucel (hydroxypropylcellulose) (HPC) 100 % of control | [7] 87 % of control and 92 % of control | [8] 92 % of control

O=C1CN(c2cccc(Cl)c2)C(=O)CN1/N=C/c1ccc(O)c(O)c1
inactive: [4] 88 % of control | [5] 92 % of control | [6] 100 % of control

COc1ccccc1Nc1ncnc2sc3c(c12)CCCC3
inactive: [4] 101 % of control | [5] 95 % of control | [6] 101 % of control

CC(NC(=O)CNC(=O)CN)C(=O)O (stereo not drawn)
inactive: dose: 25.0 mg/kg/injection, schedule: Q01DX005 (ip), vehicle: saline 102 % of control | dose: 50.0 mg/kg/injection, schedule: Q01DX005 (ip), vehicle: saline 92 % of control | dose: 100.0 mg/kg/injection, schedule: Q01DX005 (ip), vehicle: saline 94 % of control | dose: 200.0 mg/kg/injection, schedule: Q01DX005 (ip), vehicle: saline 94 % of control

CCOC(=O)CSc1ccccc1
inactive: dose: 50.0 mg/kg/injection, schedule: Q01DX009 (ip), vehicle: saline 100 % of control | dose: 100.0 mg/kg/injection, schedule: Q01DX009 (ip), vehicle: saline 98 % of control | dose: 200.0 mg/kg/injection, schedule: Q01DX009 (ip), vehicle: saline 100 % of control | dose: 400.0 mg/kg/injection, schedule: Q01DX009 (ip), vehicle: saline 100 % of control

N#CC(NCCNC(C#N)c1ccccc1)c1ccccc1 (stereo not drawn)
inactive: [1] 96 % of control | [2] 90 % of control | [3] 88 % of control

CC(C)CCCC(C)C1CCC2C3CCC4N(CCCl)CCCC4(C)C3CCC12C (stereo not drawn)
inactive: dose: 25.0 mg/kg/injection, schedule: Q01DX001 (ip), vehicle: saline 100 % of control | dose: 50.0 mg/kg/injection, schedule: Q01DX001 (ip), vehicle: saline 99 % of control | dose: 100.0 mg/kg/injection, schedule: Q01DX001 (ip), vehicle: saline 94 % of control

O=C(O)c1ccccc1NCc1ccco1
inactive: [4] 91 % of control | [5] 96 % of control | [6] 89 % of control

CCCCn1c(=O)cc(C(=O)O)[nH]c1=O
inactive: dose: 50.0 mg/kg/injection, schedule: Q01DX009 (ip), vehicle: saline with Tween-80 104 % of control | dose: 100.0 mg/kg/injection, schedule: Q01DX009 (ip), vehicle: saline with Tween-80 100 % of control | dose: 200.0 mg/kg/injection, schedule: Q01DX009 (ip), vehicle: saline with Tween-80 94 % of control

CCCC1(CCC)c2ccccc2C(Cl)(CCl)c2ccccc21
inactive: dose: 12.5 mg/kg/injection, schedule: Q01DX009 (ip), vehicle: other 103 % of control | dose: 25.0 mg/kg/injection, schedule: Q01DX009 (ip), vehicle: other 106 % of control | dose: 50.0 mg/kg/injection, schedule: Q01DX009 (ip), vehicle: other 109 % of control | dose: 100.0 mg/kg/injection, schedule: Q01DX009 (ip), vehicle: other 107 % of control | dose: 200.0 mg/kg/injection, schedule: Q01DX009 (ip), vehicle: other 109 % of control

Cc1cc(C)n(-c2ccc([N+](=O)[O-])cn2)n1
inactive: dose: 100.0 mg/kg/injection, schedule: Q04DX003 (ip), vehicle: saline 99 % of control | dose: 200.0 mg/kg/injection, schedule: Q04DX003 (ip), vehicle: saline 96 % of control | dose: 400.0 mg/kg/injection, schedule: Q04DX003 (ip), vehicle: saline 99 % of control

COC(=O)CC(OC1CC(N)C(O)C(C)O1)c1c(O)c2c(c(O)c1CO)C(=O)c1cccc(OC)c1C2=O (stereo not drawn)
inactive: dose: 100.0 mg/kg/injection, schedule: Q04DX003 (ip), vehicle: water 105 % of control | dose: 200.0 mg/kg/injection, schedule: Q04DX003 (ip), vehicle: water 121 % of control

COc1cc([N+](=O)[O-])cc2c1OC1(C=C2)Oc2ccccc2N1C (stereo not drawn)
inactive: dose: 15.0 mg/kg/injection, schedule: Q01DX005 (ip), vehicle: Klucel (hydroxypropylcellulose) (HPC) 103 % of control | dose: 30.0 mg/kg/injection, schedule: Q01DX005 (ip), vehicle: Klucel (hydroxypropylcellulose) (HPC) 100 % of control | dose: 60.0 mg/kg/injection, schedule: Q01DX005 (ip), vehicle: Klucel (hydroxypropylcellulose) (HPC) 94 % of control | dose: 120.0 mg/kg/injection, schedule: Q01DX005 (ip), vehicle: Klucel (hydroxypropylcellulose) (HPC) 100 % of control

Cc1ccc(-n2cc(-c3ccc(Cl)cc3)c3c(N)ncnc32)cc1
inactive: [1] 105 % of control | [2] 104 % of control | [3] 88 % of control

CCOC(=O)/C(C#N)=C(\C)c1ccc(O)c(OC)c1
inactive: [1] 100 % of control | [2] 101 % of control | [3] 95 % of control

CCCCNC(=O)Oc1ccc(OCc2ccccc2)cc1
inactive: dose: 100.0 mg/kg/injection, schedule: Q04DX003 (ip), vehicle: saline with Tween-80 100 % of control | dose: 200.0 mg/kg/injection, schedule: Q04DX003 (ip), vehicle: saline with Tween-80 95 % of control | dose: 400.0 mg/kg/injection, schedule: Q04DX003 (ip), vehicle: saline with Tween-80 90 % of control

CCOc1c(N=Nc2ccc(Cl)cc2Cl)c(C)nn1C(=S)SC
inactive: dose: 60.0 mg/kg/injection, schedule: Q01DX005 (ip), vehicle: Klucel + Tween-80 103 % of control | dose: 120.0 mg/kg/injection, schedule: Q01DX005 (ip), vehicle: Klucel + Tween-80 107 % of control

CC(C)(C)c1cc(C(O)(C(F)(F)F)C(F)(F)F)c(Cl)c(C(O)(C(F)(F)F)C(F)(F)F)c1
inactive: [7] 94 % of control | dose: 100.0 mg/kg/injection, schedule: Q01DX005 (ip), vehicle: Klucel (hydroxypropylcellulose) (HPC) 90 % of control | [8] 92 % of control

O=C(Nc1nnc(-c2ccccc2)s1)c1cc(=O)c2cc([N+](=O)[O-])ccc2o1
inactive: [4] 100 % of control | [5] 102 % of control | [6] 96 % of control
